Key:
Assay in all cases: relative viability (nuclei count vs DMSO), 5 days (fraction); higher = more cells survive
[1] = tested on: NCI-H596
Procedure, shortened: (§1)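 After 5 days of treatment, lung cancer cells in 1536-well plates were fixed and stained in a single step (final 0.05% Triton X-100, 1% formaldehyde, 1 ug/ml Hoechst) and their nuclei counted on 4× images. Treatment had been applied by pin tool the day after seeding as one drug alone or as a fixed anchor-drug dose with five library-drug doses (not always all listed) in √10 steps. Relative viability is the nuclei count of treated wells divided by that of vehicle wells, and values are medians of duplicate plates.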

[2] = tested on: H3255
Procedure, shortened: as §1

[3] = tested on: EKVX
Procedure, shortened: as §1

[4] = tested on: NCI-H1755
Procedure, shortened: as §1

[5] = tested on: LK-2
Procedure, shortened: as §1

[6] = tested on: HCC-366
Procedure, shortened: as §1

[7] = tested on: NCI-H1944
Procedure, shortened: as §1

[8] = tested on: NCI-H1734
Procedure, shortened: as §1

[9] = tested on: PC-3 [JPC-3]
Procedure, shortened: as §1

[10] = tested on: NCI-H1975
Procedure, shortened: as §1

[11] = tested on: NCI-H2170
Procedure, shortened: as §1

[12] = tested on: NCI-H1666
Procedure, shortened: as §1

[13] = tested on: NCI-H1563
Procedure, shortened: as §1

[14] = tested on: NCI-H520
Procedure, shortened: as §1

[15] = tested on: SW 900
Procedure, shortened: as §1

[16] = tested on: NCI-H23
Procedure, shortened: as §1

[17] = tested on: ChaGo-K-1
Procedure, shortened: as §1

[18] = tested on: COR-L 105
Procedure, shortened: as §1

[19] = tested on: A-427
Procedure, shortened: as §1

[20] = tested on: SK-MES-1
Procedure, shortened: as §1

[21] = tested on: NCI-H441
Procedure, shortened: as §1

[22] = tested on: LOU-NH91
Procedure, shortened: as §1

[23] = tested on: EMC-BAC-2
Procedure, shortened: as §1

Question: Which results are given for `Clc1ccc(Nc2nnc(Cc3ccncc3)c3ccccc23)cc1` [Vatalanib] + COc1cc2c(Oc3ccc(NC(=O)C4(C(=O)Nc5ccc(F)cc5)CC4)cc3F)ccnc2cc1OCCCN1CCOCC1 [Foretinib] (partner 0.25 µM)?
Answer: relative viability ([1]; first compound 0.04 µM): 0.775; relative viability ([1]; first compound 0.1265 µM): 1.06; relative viability ([1]; first compound 0.4 µM): 0.909; relative viability ([1]; first compound 1.265 µM): 0.81; relative viability ([1]; first compound 4 µM): 0.771; relative viability ([2]; first compound 0.04 µM): 0.763; relative viability ([2]; first compound 0.1265 µM): 0.917; relative viability ([2]; first compound 0.4 µM): 0.64; relative viability ([2]; first compound 1.265 µM): 0.829; relative viability ([2]; first compound 4 µM): 0.789; relative viability ([3]; first compound 0.04 µM): 0.836; relative viability ([3]; first compound 0.1265 µM): 0.838; relative viability ([3]; first compound 0.4 µM): 0.551; relative viability ([3]; first compound 4 µM): 0.727; relative viability ([4]; first compound 0.04 µM): 0.88; relative viability ([4]; first compound 0.1265 µM): 0.964; relative viability ([4]; first compound 0.4 µM): 0.954; relative viability ([4]; first compound 1.265 µM): 0.905; relative viability ([4]; first compound 4 µM): 0.846; relative viability ([5]; first compound 0.04 µM): 1.14; relative viability ([5]; first compound 0.1265 µM): 1.19; relative viability ([5]; first compound 0.4 µM): 1.29; relative viability ([5]; first compound 1.265 µM): 1.6; relative viability ([5]; first compound 4 µM): 1.5; relative viability ([6]; first compound 0.04 µM): 0.85; relative viability ([6]; first compound 0.1265 µM): 0.8; relative viability ([6]; first compound 0.4 µM): 0.895; relative viability ([6]; first compound 1.265 µM): 0.885; relative viability ([6]; first compound 4 µM): 0.949; relative viability ([7]; first compound 0.04 µM): 0.934; relative viability ([7]; first compound 0.1265 µM): 0.891; relative viability ([7]; first compound 0.4 µM): 0.936; relative viability ([7]; first compound 1.265 µM): 0.892; relative viability ([7]; first compound 4 µM): 0.87; relative viability ([8]; first compound 0.04 µM): 0.878; relative viability ([8]; first compound 0.1265 µM): 0.833; relative viability ([8]; first compound 0.4 µM): 0.912; relative viability ([8]; first compound 1.265 µM): 0.736; relative viability ([8]; first compound 4 µM): 0.782; relative viability ([9]; first compound 0.04 µM): 1.05; relative viability ([9]; first compound 0.1265 µM): 0.977; relative viability ([9]; first compound 0.4 µM): 1.05; relative viability ([9]; first compound 1.265 µM): 0.987; relative viability ([9]; first compound 4 µM): 1.02; relative viability ([10]; first compound 0.04 µM): 0.968; relative viability ([10]; first compound 0.1265 µM): 0.885; relative viability ([10]; first compound 0.4 µM): 0.953; relative viability ([10]; first compound 1.265 µM): 0.866; relative viability ([10]; first compound 4 µM): 0.832; relative viability ([11]; first compound 0.04 µM): 1.03; relative viability ([11]; first compound 0.1265 µM): 1.09; relative viability ([11]; first compound 0.4 µM): 1.04; relative viability ([11]; first compound 1.265 µM): 0.978; relative viability ([11]; first compound 4 µM): 1.02; relative viability ([12]; first compound 0.04 µM): 1; relative viability ([12]; first compound 0.1265 µM): 1.02; relative viability ([12]; first compound 0.4 µM): 0.997; relative viability ([12]; first compound 1.265 µM): 0.962; relative viability ([12]; first compound 4 µM): 0.925; relative viability ([13]; first compound 0.04 µM): 0.92; relative viability ([13]; first compound 0.1265 µM): 0.874; relative viability ([13]; first compound 0.4 µM): 0.995; relative viability ([13]; first compound 1.265 µM): 0.875; relative viability ([13]; first compound 4 µM): 0.901; relative viability ([14]; first compound 0.04 µM): 0.875; relative viability ([14]; first compound 0.1265 µM): 0.662; relative viability ([14]; first compound 0.4 µM): 0.781; relative viability ([14]; first compound 1.265 µM): 0.842; relative viability ([14]; first compound 4 µM): 0.697; relative viability ([15]; first compound 0.1265 µM): 0.761; relative viability ([15]; first compound 0.4 µM): 0.942; relative viability ([15]; first compound 1.265 µM): 0.922; relative viability ([15]; first compound 4 µM): 0.918; relative viability ([16]; first compound 0.04 µM): 0.928; relative viability ([16]; first compound 0.1265 µM): 0.945; relative viability ([16]; first compound 0.4 µM): 0.931; relative viability ([16]; first compound 1.265 µM): 0.796; relative viability ([16]; first compound 4 µM): 1.02; relative viability ([17]; first compound 0.04 µM): 1; relative viability ([17]; first compound 0.1265 µM): 0.916; relative viability ([17]; first compound 0.4 µM): 0.976; relative viability ([17]; first compound 1.265 µM): 0.881; relative viability ([17]; first compound 4 µM): 0.893; relative viability ([18]; first compound 0.04 µM): 0.885; relative viability ([18]; first compound 0.1265 µM): 1.23; relative viability ([18]; first compound 0.4 µM): 1.24; relative viability ([18]; first compound 1.265 µM): 0.785; relative viability ([18]; first compound 4 µM): 1.12; relative viability ([19]; first compound 0.04 µM): 1.06; relative viability ([19]; first compound 0.1265 µM): 0.993; relative viability ([19]; first compound 0.4 µM): 1.14; relative viability ([19]; first compound 1.265 µM): 0.993; relative viability ([19]; first compound 4 µM): 1.11; relative viability ([20]; first compound 0.04 µM): 1.02; relative viability ([20]; first compound 0.1265 µM): 0.82; relative viability ([20]; first compound 0.4 µM): 0.943; relative viability ([20]; first compound 1.265 µM): 0.881; relative viability ([20]; first compound 4 µM): 0.692; relative viability ([21]; first compound 0.04 µM): 0.994; relative viability ([21]; first compound 0.1265 µM): 0.977; relative viability ([21]; first compound 0.4 µM): 1.15; relative viability ([21]; first compound 1.265 µM): 0.881; relative viability ([21]; first compound 4 µM): 0.893; relative viability ([22]; first compound 0.04 µM): 0.887; relative viability ([22]; first compound 0.1265 µM): 0.956; relative viability ([22]; first compound 1.265 µM): 0.937; relative viability ([22]; first compound 4 µM): 0.91; relative viability ([23]; first compound 0.04 µM): 0.826; relative viability ([23]; first compound 0.1265 µM): 1.01; relative viability ([23]; first compound 0.4 µM): 1.09; relative viability ([23]; first compound 1.265 µM): 0.919; relative viability ([23]; first compound 4 µM): 1.02

From the supplement of paper PMC10307832
